# Data from paper PMC2180168 (BMC Pharmacology, 2007).
# Columns and labels:
# in vivo = settings: CD1, mouse, plasma, ip
# [1] = test system: multiple myeloma cell line; settings: cited from earlier work
# [2] = test system: Hodgkin lymphoma cell lines; design: method as in PMID 11953894; settings: cited from earlier work
# [3] = test system: anaplastic large cell lymphoma with NPM-ALK fusion protein cell lines; design: method as in PMID 11532349; settings: cited from earlier work
# [4] = test system: refractory/relapsed myeloma; settings: patients with refractory/relapsed myeloma; cited from earlier work
AUC(0-t) (in vivo; 12 mg/kg/d) [ng·h/mL],AUC(0-t) (in vivo; 12 mg/kg/day) [ng·h/mL],half-life (in vivo; 12 mg/kg/day) [min],SMILES,in vitro antiproliferative effect on a multiple myeloma cell line [1],effect in Hodgkin lymphoma cell lines [2],effect in anaplastic large cell lymphoma cell lines [3],response in phase II trial [4]
17900,20000,14.4,COc1cc([C@@H]2c3cc4c(cc3[C@@H](O[C@@H]3O[C@@H]5CO[C@@H](C)O[C@H]5[C@H](O)[C@H]3O)[C@H]3COC(=O)[C@H]23)OCO4)cc(OC)c1O [etoposide],,,,
,,,Cc1ccc(NC(=O)c2ccc(CN3CCN(C)CC3)cc2)cc1Nc1nccc(-c2cccnc2)n1 [imatinib],antiproliferative effect,minimal effect,minimal effect,no response
